Test results published in patent US4476120A, “Thiolic derivatives of erythromycin having therapeutic activity, and pharmaceutical compositions containing them” (Sigma Tau Indistrie Farmaceutiche Riunites, p.A, priority 1982, dated 1984).
Values after ≈ are worked out from the molar mass of the structure shown.

Key:
Staph. aureus SS 09 = format: cell-based; conditions: Brain Heart Infusion, estolate and RV11-RV15 previously hydrolized, unit assumed
E. coli SS 07 = format: cell-based; conditions: Brain Heart Infusion, estolate and RV11-RV15 previously hydrolized, unit assumed
in vivo = conditions: rat, po, 100 mg/kg, Hematic levels in the rat
B. subtilis ATCC 6633 = format: cell-based; conditions: Brain Heart Infusion, estolate and RV11-RV15 previously hydrolized, unit assumed
Strept. faecalis SS 19 = format: cell-based; conditions: Brain Heart Infusion, estolate and RV11-RV15 previously hydrolized, unit assumed
Citrobacter SS 09 = format: cell-based; conditions: Brain Heart Infusion, estolate and RV11-RV15 previously hydrolized, unit assumed
C. albicans SS 04 = format: cell-based; conditions: Brain Heart Infusion, estolate and RV11-RV15 previously hydrolized, unit assumed
Staph. aureus SS 07 = assay: Experimental infection induced by Staph. aureus SS 07; format: in vivo, Swiss white mice; conditions: Staphylococcus aureus, SS07, in Mus musculus, po, 168 h, os; Staph. aureus SS 07; mg/kg of erythromycin; survival after 7 days; read-out: ED50 (reliability limits)
Description: (§1) Swiss white mice of 20 g body weight were used, infected by parenteral administration of lethal amounts of pathogenic […] of Staph. aureus SS 07 and D. pneumoniae SS 23.
(§2) The antibiotics were administered at the time of injecting the infecting germ and 6 and 24 hours later. On the basis of the survival after 7 days, the ED50 values were determined, as reported in the following table II and III, wherein the reliability limits are indicated in brackets.

[1] = in vivo, po, 100 mg/kg, 6 h
S. lutea ATCC 9341 = format: cell-based; conditions: Brain Heart Infusion, estolate and RV11-RV15 previously hydrolized, unit assumed
N. meningitidis SS 04 = format: cell-based; conditions: Brain Heart Infusion, estolate and RV11-RV15 previously hydrolized, unit assumed
E. aerogenes SS 011 = format: cell-based; conditions: Brain Heart Infusion, estolate and RV11-RV15 previously hydrolized, unit assumed
Br. melitensis SS 19 = format: cell-based; conditions: unit assumed
D. pneumoniae SS 23 [2] = format: cell-based; conditions: Brain Heart Infusion, estolate and RV11-RV15 previously hydrolized, unit assumed
[3] = Mucolytic activity: obstruction of the bronchial tract after SO2 inhalation; format: in vivo, Sprague Dawley male rats; conditions: oral, 500 mg/kg; SO2, 15 days
B. anthranis SS 08 = format: cell-based; conditions: Brain Heart Infusion, estolate and RV11-RV15 previously hydrolized, unit assumed
Staph. albus SS 04 = format: cell-based; conditions: Brain Heart Infusion, estolate and RV11-RV15 previously hydrolized, unit assumed
D. pneumoniae SS 23 [4] = assay: Experimental infection induced by D. pneumoniae SS 23; format: in vivo, Swiss white mice; conditions: Streptococcus pneumoniae, SS23, in Mus musculus, po, 168 h, os; D. pneumoniae SS 23; mg/kg of erythromycin; survival after 7 days; read-out: ED50 (reliability limits)
Description: as §1, §2

H. pertussis SS 03 = format: cell-based; conditions: Brain Heart Infusion, estolate and RV11-RV15 previously hydrolized, unit assumed
E. cloacae SS 07 = format: cell-based; conditions: Brain Heart Infusion, estolate and RV11-RV15 previously hydrolized, unit assumed
[5] = Histological examination of bronchi after SO2 inhalation; format: in vivo, Sprague Dawley male rats; conditions: oral, 500 mg/kg
[6] = Hematic levels in the healthy volunteer; format: in vivo, healthy volunteers; conditions: 500 mg of erythromycin, average; for Hematic levels in the healthy volunteer: oral
Source text: For the dosing, the microbiological method using a B. subtilis strain was adopted.

S. infantis SS 08 = format: cell-based; conditions: Brain Heart Infusion, estolate and RV11-RV15 previously hydrolized, unit assumed
Sr. marcescens SS 03 = format: cell-based; conditions: Brain Heart Infusion, estolate and RV11-RV15 previously hydrolized, unit assumed
B. anthranis SS 09 = format: cell-based; conditions: B. anthranis SS 09 (14 bis); Brain Heart Infusion; estolate and RV11-RV15 previously hydrolized; unit assumed
E. coli SS 04 = format: cell-based; conditions: Brain Heart Infusion, estolate and RV11-RV15 previously hydrolized, unit assumed
Staph. aureus SS 08 = format: cell-based; conditions: Brain Heart Infusion, estolate and RV11-RV15 previously hydrolized, unit assumed
N. gonorreae SS 27 = format: cell-based; conditions: Brain Heart Infusion, estolate and RV11-RV15 previously hydrolized, unit assumed
Pr. vulgaris SS 10 = format: cell-based; conditions: Brain Heart Infusion, estolate and RV11-RV15 previously hydrolized, unit assumed
[7] = system: Strept. haemolyticus SS 18; format: cell-based; conditions: Brain Heart Infusion, estolate and RV11-RV15 previously hydrolized, unit assumed
E. coli SS 05 = format: cell-based; conditions: Brain Heart Infusion, estolate and RV11-RV15 previously hydrolized, unit assumed
S. heidelberg SS 18 = format: cell-based; conditions: Brain Heart Infusion, estolate and RV11-RV15 previously hydrolized, unit assumed
Kl. aerogenes SS 71 = format: cell-based; conditions: Brain Heart Infusion, estolate and RV11-RV15 previously hydrolized, unit assumed
Ps. aeruginosa SS 10 = format: cell-based; conditions: Brain Heart Infusion, estolate and RV11-RV15 previously hydrolized, unit assumed
C. diphtheriae SS 19 = format: cell-based; conditions: Brain Heart Infusion, estolate and RV11-RV15 previously hydrolized, unit assumed
Citrobacter SS 05 = format: cell-based; conditions: Brain Heart Infusion, estolate and RV11-RV15 previously hydrolized, unit assumed
Pr. mirabilis SS 09 = format: cell-based; conditions: Brain Heart Infusion, estolate and RV11-RV15 previously hydrolized, unit assumed
Kl. pneumoniae SS 04 = format: cell-based; conditions: Brain Heart Infusion, estolate and RV11-RV15 previously hydrolized, unit assumed
Source text: (§3) In the following table I the MIC/ml values are indicated corresponding to the lowest concentration capable of inducing a complete inhibition of the bacterial development.

H. tubercolosis SS 03 = format: cell-based; conditions: Brain Heart Infusion, estolate and RV11-RV15 previously hydrolized, unit assumed
Source text: as §3

B. subtilis SS 127 = format: cell-based; conditions: Brain Heart Infusion, estolate and RV11-RV15 previously hydrolized, unit assumed
E. coli SS 06 = format: cell-based; conditions: Brain Heart Infusion, estolate and RV11-RV15 previously hydrolized, unit assumed
B. cereus ATCC 11778 = format: cell-based; conditions: Brain Heart Infusion, estolate and RV11-RV15 previously hydrolized, unit assumed
Br. abortus SS 7 = format: cell-based; conditions: Brain Heart Infusion, estolate and RV11-RV15 previously hydrolized, unit assumed
Staph. albus SS 03 = format: cell-based; conditions: Brain Heart Infusion, estolate and RV11-RV15 previously hydrolized, unit assumed
Cl. tetani SS 17 = format: cell-based; conditions: Brain Heart Infusion, estolate and RV11-RV15 previously hydrolized, unit assumed
H. influentiae SS 02 = format: cell-based; conditions: Brain Heart Infusion, estolate and RV11-RV15 previously hydrolized, unit assumed
[8] = system: Strept. haemolyticus SS 17; format: cell-based; conditions: Brain Heart Infusion, estolate and RV11-RV15 previously hydrolized, unit assumed
[9] = C.A. 93 38279f; cited from earlier work

For `CCC(=O)O[C@H]1[C@H](O[C@@H]2[C@@H](C)[C@H](O[C@H]3C[C@@](C)(OC)[C@@H](O)[C@H](C)O3)[C@@H](C)C(=O)O[C@H](CC)[C@@](C)(O)[C@H](O)[C@@H](C)C(=O)[C@H](C)C[C@@]2(C)O)O[C@H](C)C[C@@H]1N(C)C` [erythromycin estolate, reference compound], the MIC (Staph. aureus SS 09) was 0.05 µg/mL (≈ 0.0633 µM), the MIC (E. coli SS 07) was 50 µg/mL (≈ 63.3 µM) and the concentration at 0.3 h (in vivo) was 680 ng/mL. It also gave a concentration at 1 h (in vivo) of 1740 ng/mL, a concentration at 2 h (in vivo) of 2490 ng/mL and a concentration at 3 h (in vivo) of 1490 ng/mL. For the same molecule, the concentration at 4 h (in vivo) was 610 ng/mL, the concentration at 5 h (in vivo) was 370 ng/mL and the MIC (B. subtilis ATCC 6633) was 0.01 µg/mL (≈ 0.0127 µM). It also gave an MIC (Strept. faecalis SS 19) of 0.1 µg/mL (≈ 0.127 µM), an MIC (Citrobacter SS 09) of over 200 µg/mL and an MIC (C. albicans SS 04) of 200 µg/mL (≈ 253 µM). The ED50 (Staph. aureus SS 07) was 2.2 mg/kg, the “Hematic levels in the rat” value [1] was 0.04 µg/mL and the MIC (S. lutea ATCC 9341) was 0.01 µg/mL (≈ 0.0127 µM). For the same molecule, the MIC (N. meningitidis SS 04) was 1.5 µg/mL (≈ 1.9 µM), the MIC (E. aerogenes SS 011) was 50 µg/mL (≈ 63.3 µM) and the MIC (Br. melitensis SS 19) was 3 µg/mL (≈ 3.8 µM). For the same molecule, the MIC (D. pneumoniae SS 23 [2]) was 0.05 µg/mL (≈ 0.0633 µM), the “Partial obstruction (% incidence)” value [3] was 20% and the “Total obstruction, compact plug (% incidence)” value [3] was 46.66%. For the same molecule, the “Total obstruction, nodular mass (% incidence)” value [3] was 20%, the “Total obstruction, pimply mass (% incidence)” value [3] was 6.66% and the MIC (B. anthranis SS 08) was 0.4 µg/mL (≈ 0.506 µM). For the same molecule, the MIC (Staph. albus SS 04) was 0.05 µg/mL (≈ 0.0633 µM), the ED50 (D. pneumoniae SS 23 [4]) was 128 mg/kg and the MIC (H. pertussis SS 03) was 0.4 µg/mL (≈ 0.506 µM). The MIC (E. cloacae SS 07) was over 200 µg/mL, the bronchial epithelium reaction [5] was “the bronchial epithelium reacts through a proliferation of cells, mainly cup-shaped cells” and the “histological appearance of obstructed bronchial tract” value ([5]; obstructed) was “the bronchial obstruction is formed by abundant mucus admixed with fibrin”. For the same molecule, the “Hematic levels in the healthy volunteer” value ([6]; 0.30 hours, 18 min) was 0.27 µg/mL, the “Hematic levels in the healthy volunteer” value ([6]; 1 hour, 60 min) was 0.58 µg/mL and the concentration at 2 h ([6]; human, blood, po, 500 mg, 2 hours) was 2100 ng/mL. For the same molecule, the concentration at 3 h ([6]; human, blood, po, 500 mg, 3 hours) was 1410 ng/mL, the concentration at 4 h ([6]; human, blood, po, 500 mg, 4 hours) was 1310 ng/mL and the MIC (S. infantis SS 08) was 100 µg/mL (≈ 127 µM). For the same molecule, the MIC (Sr. marcescens SS 03) was over 200 µg/mL, the MIC (B. anthranis SS 09) was 0.4 µg/mL (≈ 0.506 µM) and the MIC (E. coli SS 04) was 100 µg/mL (≈ 127 µM). For the same molecule, the MIC (Staph. aureus SS 08) was 0.025 µg/mL (≈ 0.0316 µM), the MIC (N. gonorreae SS 27) was 0.8 µg/mL (≈ 1.01 µM) and the MIC (Pr. vulgaris SS 10) was over 200 µg/mL. For the same molecule, the MIC [7] was 3 µg/mL (≈ 3.8 µM), the MIC (E. coli SS 05) was 100 µg/mL (≈ 127 µM) and the MIC (S. heidelberg SS 18) was 100 µg/mL (≈ 127 µM). It also gave an MIC (Kl. aerogenes SS 71) of 100 µg/mL (≈ 127 µM), an MIC (Ps. aeruginosa SS 10) of 100 µg/mL (≈ 127 µM) and an MIC (C. diphtheriae SS 19) of 0.025 µg/mL (≈ 0.0316 µM). It also gave an MIC (Citrobacter SS 05) of over 200 µg/mL, an MIC (Pr. mirabilis SS 09) of over 200 µg/mL and an MIC (Kl. pneumoniae SS 04) of 100 µg/mL (≈ 127 µM). For the same molecule, the MIC (H. tubercolosis SS 03) was 50 µg/mL (≈ 63.3 µM), the MIC (B. subtilis SS 127) was 0.025 µg/mL (≈ 0.0316 µM) and the MIC (E. coli SS 06) was 50 µg/mL (≈ 63.3 µM). The MIC (B. cereus ATCC 11778) was 0.8 µg/mL (≈ 1.01 µM), the MIC (Br. abortus SS 7) was 6 µg/mL (≈ 7.59 µM) and the MIC (Staph. albus SS 03) was 0.05 µg/mL (≈ 0.0633 µM). The MIC (Cl. tetani SS 17) was 0.2 µg/mL (≈ 0.253 µM), the MIC (H. influentiae SS 02) was 1.5 µg/mL (≈ 1.9 µM) and the MIC [8] was 3 µg/mL (≈ 3.8 µM).

For `CC(=O)N[C@@H](CS)C(=O)O` [acetylcysteine], the “action with respect to the activity of antibiotics” value [9] is given as “inhibiting action with respect to the activity of antibiotics”.
